Reference: ChEMBL document CHEMBL1201862, “PubChem BioAssay data set” (2004)
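Method: 48-hour compound exposure of cells in 96-well plates, five concentrations, linear interpolation of endpoints. At the GI50, growth is halved.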 The source made the active and inactive calls. No stated cut-off is given here; in the data, active = GI50 up to about 1.1 µM and inactive = higher. Where a SMILES comes first, the peptide text is derived from it. The star is where a group is joined. Boc = CC(C)(C)OC(=O)*

Experiments:
Assay in all cases: growth of human tumour cells (NCI), 48 h
IGROV-1 = system: IGROV-1
KM12 = system: KM12
HCT-15 = system: HCT-15
SNB-19 = system: SNB-19
DLD-1 = system: DLD-1
SK-MEL-2 = system: SK-MEL-2
ACHN = system: ACHN
UACC-62 = system: UACC-62
A549 = system: A549
LXFL 529 = system: LXFL 529
HOP-62 = system: HOP-62
LOX IMVI = system: LOX IMVI
HCC 2998 = system: HCC 2998
DMS-114 = system: DMS-114
786-0 = system: 786-0
SK-MEL-28 = system: SK-MEL-28
DU-145 = system: DU-145
SR = system: SR
PC-3 = system: PC-3
XF498 = system: XF498

| Compound | GI50 (IGROV-1) | GI50 (KM12) | GI50 (HCT-15) | GI50 (SNB-19) | GI50 (DLD-1) | GI50 (SK-MEL-2) | GI50 (ACHN) | GI50 (UACC-62) | GI50 (A549) | GI50 (LXFL 529) | GI50 (HOP-62) | GI50 (LOX IMVI) | GI50 (HCC 2998) | GI50 (DMS-114) | GI50 (786-0) | GI50 (SK-MEL-28) | GI50 (DU-145) | GI50 (SR) | GI50 (PC-3) | GI50 (XF498) |
| --- | --- | --- | --- | --- | --- | --- | --- | --- | --- | --- | --- | --- | --- | --- | --- | --- | --- | --- | --- | --- |
| NC(=O)CCC(NCc1c2ccccc2[n+]([O-])c2ccccc12)C(=O)O (configuration not stated) | > 100 µM (inactive) | 65.9 µM (inactive) | 34.5 µM | > 100 µM (inactive) | 46.9 µM (inactive) | 95.9 µM (inactive) | 78 µM (inactive) | 90.8 µM (inactive) | > 100 µM (inactive) | 45.1 µM (inactive) | > 100 µM (inactive) | 39.1 µM (inactive) | > 100 µM (inactive) | 41.9 µM (inactive) | 70.8 µM (inactive) | > 100 µM (inactive) | – | – | – | – |
| CN1CCC(C(O)(c2ccccc2)c2ccc(Br)cc2)CC1 (configuration not stated) | 25.9 µM (inactive) | 18.6 µM (inactive) | 35.6 µM | 45.2 µM (inactive) | – | 16.2 µM (inactive) | 31.2 µM (inactive) | 15.7 µM (inactive) | 26.4 µM (inactive) | – | 24.8 µM (inactive) | 15.8 µM (inactive) | 12.6 µM (inactive) | – | 14.4 µM (inactive) | 16.7 µM (inactive) | 81.5 µM (inactive) | 17.5 µM (inactive) | 22.2 µM (inactive) | – |
| COC(=O)c1cccc(N[C@@H]2c3cc4c(cc3C(c3cc(OC)c(O)c(OC)c3)[C@H]3C(=O)OCC32)OCO4)c1 (some centres not stated) | 3.13 µM (inactive) | 2.37 µM (inactive) | 1.08 µM | 0.755 µM (active) | 1.89 µM (inactive) | 4.69 µM (inactive) | – | 0.729 µM (active) | 0.153 µM (active) | – | 0.239 µM (active) | 0.859 µM (active) | 2.19 µM (inactive) | 0.568 µM (active) | – | 2.67 µM (inactive) | – | – | – | 0.701 µM (active) |
| COc1cc(O)c2c(=O)cc(C3(O)C=CC(=O)C=C3)oc2c1 | < 0.01 µM (active) | 0.083 µM (active) | 0.0435 µM | 6.93 µM (inactive) | – | 0.619 µM (active) | < 0.045 µM (active) | 0.378 µM (active) | – | – | 0.182 µM (active) | 0.041 µM (active) | 0.535 µM (active) | – | – | 0.199 µM (active) | 0.839 µM (active) | < 0.01 µM (active) | 0.131 µM (active) | – |
| c1ccc(-c2nnc(-c3nsc4ccccc34)o2)cc1 | 60.4 µM (inactive) | > 100 µM (inactive) | > 100 µM | > 100 µM (inactive) | – | > 100 µM (inactive) | – | > 100 µM (inactive) | > 100 µM (inactive) | > 100 µM (inactive) | > 100 µM (inactive) | > 100 µM (inactive) | > 100 µM (inactive) | > 100 µM (inactive) | – | > 100 µM (inactive) | – | – | – | – |
| NC(C/C=C/P(=O)(O)O)C(=O)O (configuration not stated) | > 100 µM (inactive) | > 100 µM (inactive) | > 100 µM | > 100 µM (inactive) | – | > 100 µM (inactive) | > 100 µM (inactive) | > 100 µM (inactive) | > 100 µM (inactive) | – | – | > 100 µM (inactive) | > 100 µM (inactive) | – | – | > 100 µM (inactive) | > 100 µM (inactive) | > 100 µM (inactive) | > 100 µM (inactive) | – |
| COc1ccc(-c2cc(O)c3ccc(C)nc3n2)cc1 | 43.2 µM (inactive) | > 100 µM (inactive) | > 100 µM | > 100 µM (inactive) | – | > 100 µM (inactive) | > 100 µM (inactive) | 86.1 µM (inactive) | > 100 µM (inactive) | – | > 100 µM (inactive) | > 100 µM (inactive) | > 100 µM (inactive) | – | – | > 100 µM (inactive) | > 100 µM (inactive) | – | – | – |
| Nc1nc(O)c2ncn(C3C=CC(CO)O3)c2n1 (configuration not stated) | – | > 100 µM (inactive) | > 100 µM | > 100 µM (inactive) | – | > 100 µM (inactive) | – | – | – | – | > 100 µM (inactive) | > 100 µM (inactive) | – | – | – | > 100 µM (inactive) | > 100 µM (inactive) | > 100 µM (inactive) | > 100 µM (inactive) | – |
| CC(C)[C@](O)(C(=O)OCC1=CCN2CC[C@@H](O)[C@@H]12)[C@H](C)O | > 308 µM (inactive) | > 375 µM (inactive) | > 375 µM | > 375 µM (inactive) | > 375 µM (inactive) | > 375 µM (inactive) | – | > 375 µM (inactive) | > 375 µM (inactive) | – | > 335 µM (inactive) | > 174 µM (inactive) | > 375 µM (inactive) | 368 µM (inactive) | – | > 375 µM (inactive) | – | – | – | > 375 µM (inactive) |
| CC(C)(C)OC(=O)NC(Cc1ccccc1)C(=O)N1CCCC1C(N)=O (stereo not drawn) (Boc-Phe-Pro-NH2; configuration not given here) | > 100 µM (inactive) | – | > 100 µM | > 100 µM (inactive) | – | – | > 100 µM (inactive) | > 100 µM (inactive) | > 100 µM (inactive) | – | > 100 µM (inactive) | > 100 µM (inactive) | > 100 µM (inactive) | – | – | > 100 µM (inactive) | > 100 µM (inactive) | > 100 µM (inactive) | > 100 µM (inactive) | – |
